Experimental data reported in ChEMBL document CHEMBL1909046, “DrugMatrix in vitro pharmacology data”.

Target: T1, Calcitonin receptor (Homo sapiens, UniProt P30988); also: in other assays of this panel Not Active means under 50% inhibition at 10 µM
T1 sequence (P30988 whole entry): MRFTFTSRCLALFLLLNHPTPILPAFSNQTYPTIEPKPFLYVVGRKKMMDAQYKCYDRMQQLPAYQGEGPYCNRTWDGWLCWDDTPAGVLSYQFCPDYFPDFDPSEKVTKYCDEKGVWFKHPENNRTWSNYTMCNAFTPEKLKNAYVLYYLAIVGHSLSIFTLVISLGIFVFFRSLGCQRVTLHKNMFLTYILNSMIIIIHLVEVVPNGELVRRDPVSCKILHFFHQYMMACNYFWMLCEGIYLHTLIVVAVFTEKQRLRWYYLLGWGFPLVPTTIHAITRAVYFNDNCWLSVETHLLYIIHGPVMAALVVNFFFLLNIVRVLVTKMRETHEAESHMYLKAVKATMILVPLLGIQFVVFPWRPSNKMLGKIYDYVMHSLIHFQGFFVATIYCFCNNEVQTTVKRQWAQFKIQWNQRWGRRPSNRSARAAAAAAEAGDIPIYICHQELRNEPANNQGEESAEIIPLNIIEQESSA
Assay: not given
Format: cell membranes, Membrane
Details: t47d

Compound	IC50
CC(=O)[C@@]1(O)CC[C@H]2[C@@H]3C[C@H](C)C4=CC(=O)C=C[C@]4(C)[C@@]3(F)[C@@H](O)C[C@@]21C [FLUOROMETHOLONE]	Not Active
C[C@]12CCC(=O)C=C1CC[C@@H]1[C@@H]2C(=O)C[C@@]2(C)[C@H]1CC[C@]2(O)C(=O)CO [CORTISONE]	Not Active
CC(=O)O[C@]1(C(C)=O)CC[C@H]2[C@@H]3C=C(Cl)C4=CC(=O)CC[C@]4(C)[C@H]3CC[C@@]21C [CHLORMADINONE ACETATE]	Not Active

Test system: not listed separately
Assay: DRUGMATRIX: Potassium Channel [KATP] radioligand binding (ligand: [3H] Glyburide)
Format: cell membranes, Membrane
Details: hit-t15; Not Active = under 50% inhibition at 10 µM

Compound	IC50	Ki
CC(=O)[C@@]1(O)CC[C@H]2[C@@H]3C[C@H](C)C4=CC(=O)C=C[C@]4(C)[C@@]3(F)[C@@H](O)C[C@@]21C [FLUOROMETHOLONE]	Not Active	Not Active
C[C@]12CCC(=O)C=C1CC[C@@H]1[C@@H]2C(=O)C[C@@]2(C)[C@H]1CC[C@]2(O)C(=O)CO [CORTISONE]	Not Active	Not Active
CC(=O)O[C@]1(C(C)=O)CC[C@H]2[C@@H]3C=C(Cl)C4=CC(=O)CC[C@]4(C)[C@H]3CC[C@@]21C [CHLORMADINONE ACETATE]	Not Active	Not Active

Target: Mitogen-activated protein kinase 3 (Homo sapiens, UniProt P27361)
Assay: DRUGMATRIX: Protein Serine/Threonine Kinase, ERK1 enzyme inhibition (substrate: Myelin Basic Protein)
Set-up: species or system Escherichia coli
Details: Not Active = under 50% inhibition at 10 µM

Chain of Mitogen-activated protein kinase 3 (P27361 whole entry): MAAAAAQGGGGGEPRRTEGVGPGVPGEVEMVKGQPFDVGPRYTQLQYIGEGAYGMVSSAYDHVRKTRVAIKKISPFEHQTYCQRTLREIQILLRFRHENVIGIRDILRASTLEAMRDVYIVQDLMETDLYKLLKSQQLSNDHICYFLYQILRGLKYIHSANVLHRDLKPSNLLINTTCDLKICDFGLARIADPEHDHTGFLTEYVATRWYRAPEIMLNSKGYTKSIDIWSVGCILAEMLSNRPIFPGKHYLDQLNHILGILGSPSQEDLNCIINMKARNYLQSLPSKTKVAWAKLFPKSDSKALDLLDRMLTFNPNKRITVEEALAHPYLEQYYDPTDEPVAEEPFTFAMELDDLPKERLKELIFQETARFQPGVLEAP

Compound	IC50
CC(=O)[C@@]1(O)CC[C@H]2[C@@H]3C[C@H](C)C4=CC(=O)C=C[C@]4(C)[C@@]3(F)[C@@H](O)C[C@@]21C [FLUOROMETHOLONE]	Not Active
C[C@]12CCC(=O)C=C1CC[C@@H]1[C@@H]2C(=O)C[C@@]2(C)[C@H]1CC[C@]2(O)C(=O)CO [CORTISONE]	Not Active
CC(=O)O[C@]1(C(C)=O)CC[C@H]2[C@@H]3C=C(Cl)C4=CC(=O)CC[C@]4(C)[C@H]3CC[C@@]21C [CHLORMADINONE ACETATE]	Not Active

Target: Substance-P receptor (Homo sapiens, UniProt P25103); also: in other assays of this panel Not Active means under 50% inhibition at 10 µM
Assay: not given
Format: cell membranes, CHO, Membrane
Details: cho

Chain of Substance-P receptor (P25103 whole entry): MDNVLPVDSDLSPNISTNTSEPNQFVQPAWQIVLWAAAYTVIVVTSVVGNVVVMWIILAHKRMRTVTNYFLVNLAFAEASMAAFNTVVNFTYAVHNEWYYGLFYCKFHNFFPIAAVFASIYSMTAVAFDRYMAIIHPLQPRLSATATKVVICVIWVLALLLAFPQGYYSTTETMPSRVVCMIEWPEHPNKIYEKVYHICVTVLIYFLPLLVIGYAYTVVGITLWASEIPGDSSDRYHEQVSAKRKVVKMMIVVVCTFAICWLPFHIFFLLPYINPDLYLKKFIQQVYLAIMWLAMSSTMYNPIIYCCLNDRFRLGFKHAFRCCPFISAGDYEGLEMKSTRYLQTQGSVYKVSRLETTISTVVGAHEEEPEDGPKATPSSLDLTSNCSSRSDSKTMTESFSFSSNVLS

Compound	IC50
CC(=O)[C@@]1(O)CC[C@H]2[C@@H]3C[C@H](C)C4=CC(=O)C=C[C@]4(C)[C@@]3(F)[C@@H](O)C[C@@]21C [FLUOROMETHOLONE]	Not Active
C[C@]12CCC(=O)C=C1CC[C@@H]1[C@@H]2C(=O)C[C@@]2(C)[C@H]1CC[C@]2(O)C(=O)CO [CORTISONE]	Not Active
CC(=O)O[C@]1(C(C)=O)CC[C@H]2[C@@H]3C=C(Cl)C4=CC(=O)CC[C@]4(C)[C@H]3CC[C@@]21C [CHLORMADINONE ACETATE]	Not Active

Test system: not listed separately
Assay: DRUGMATRIX: GABAA, Muscimol, Central radioligand binding (ligand: [3H] Muscimol)
Format: cell membranes, Rattus norvegicus, Wistar, Brain, Membrane
Details: Not Active = under 50% inhibition at 10 µM

Compound	IC50	Ki
CC(=O)[C@@]1(O)CC[C@H]2[C@@H]3C[C@H](C)C4=CC(=O)C=C[C@]4(C)[C@@]3(F)[C@@H](O)C[C@@]21C [FLUOROMETHOLONE]	Not Active	Not Active
C[C@]12CCC(=O)C=C1CC[C@@H]1[C@@H]2C(=O)C[C@@]2(C)[C@H]1CC[C@]2(O)C(=O)CO [CORTISONE]	Not Active	Not Active
CC(=O)O[C@]1(C(C)=O)CC[C@H]2[C@@H]3C=C(Cl)C4=CC(=O)CC[C@]4(C)[C@H]3CC[C@@]21C [CHLORMADINONE ACETATE]	Not Active	Not Active

Test system: not listed separately
Assay: DRUGMATRIX: Nicotinic Acetylcholine radioligand binding (ligand: [125I] Epibatidine)
Format: cell membranes, Membrane
Details: imr-32; Not Active = under 50% inhibition at 10 µM

Compound	IC50	Ki
CC(=O)[C@@]1(O)CC[C@H]2[C@@H]3C[C@H](C)C4=CC(=O)C=C[C@]4(C)[C@@]3(F)[C@@H](O)C[C@@]21C [FLUOROMETHOLONE]	Not Active	Not Active
C[C@]12CCC(=O)C=C1CC[C@@H]1[C@@H]2C(=O)C[C@@]2(C)[C@H]1CC[C@]2(O)C(=O)CO [CORTISONE]	Not Active	Not Active
CC(=O)O[C@]1(C(C)=O)CC[C@H]2[C@@H]3C=C(Cl)C4=CC(=O)CC[C@]4(C)[C@H]3CC[C@@]21C [CHLORMADINONE ACETATE]	Not Active	Not Active

Target: C-C chemokine receptor type 5 (Homo sapiens, UniProt P51681); also: in other assays of this panel Not Active means under 50% inhibition at 10 µM
Assay: not given
Format: cell membranes, Membrane
Details: hek293

Chain of C-C chemokine receptor type 5 (P51681 whole entry): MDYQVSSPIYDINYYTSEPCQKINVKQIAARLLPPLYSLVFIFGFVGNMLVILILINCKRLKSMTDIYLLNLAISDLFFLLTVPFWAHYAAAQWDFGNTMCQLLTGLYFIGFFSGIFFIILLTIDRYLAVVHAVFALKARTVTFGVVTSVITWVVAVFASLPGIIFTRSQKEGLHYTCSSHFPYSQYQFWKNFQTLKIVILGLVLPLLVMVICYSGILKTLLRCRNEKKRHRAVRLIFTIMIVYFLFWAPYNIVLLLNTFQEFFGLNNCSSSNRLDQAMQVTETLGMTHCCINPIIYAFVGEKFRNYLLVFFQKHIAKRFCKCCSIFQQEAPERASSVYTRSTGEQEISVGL

Compound	IC50
CC(=O)[C@@]1(O)CC[C@H]2[C@@H]3C[C@H](C)C4=CC(=O)C=C[C@]4(C)[C@@]3(F)[C@@H](O)C[C@@]21C [FLUOROMETHOLONE]	Not Active
C[C@]12CCC(=O)C=C1CC[C@@H]1[C@@H]2C(=O)C[C@@]2(C)[C@H]1CC[C@]2(O)C(=O)CO [CORTISONE]	Not Active
CC(=O)O[C@]1(C(C)=O)CC[C@H]2[C@@H]3C=C(Cl)C4=CC(=O)CC[C@]4(C)[C@H]3CC[C@@]21C [CHLORMADINONE ACETATE]	Not Active

Test system: not listed separately
Assay: DRUGMATRIX: Interleukin IL-1 radioligand binding (ligand: [125I] interleukin 1beta)
Format: cell membranes, Membrane
Details: nih3t3; Not Active = under 50% inhibition at 10 µM

Compound	IC50	Ki
CC(=O)[C@@]1(O)CC[C@H]2[C@@H]3C[C@H](C)C4=CC(=O)C=C[C@]4(C)[C@@]3(F)[C@@H](O)C[C@@]21C [FLUOROMETHOLONE]	Not Active	Not Active
C[C@]12CCC(=O)C=C1CC[C@@H]1[C@@H]2C(=O)C[C@@]2(C)[C@H]1CC[C@]2(O)C(=O)CO [CORTISONE]	Not Active	Not Active
CC(=O)O[C@]1(C(C)=O)CC[C@H]2[C@@H]3C=C(Cl)C4=CC(=O)CC[C@]4(C)[C@H]3CC[C@@]21C [CHLORMADINONE ACETATE]	Not Active	Not Active

Target: T2, Angiotensin-converting enzyme (Oryctolagus cuniculus, UniProt P12822);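 also: enzymatic inhibition of angiotensin-converting enzyme measured with FAPGG as the substrate; in other assays of this panel Not Active means under 50% inhibition at 10 µM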
T2 sequence (P12822 whole entry): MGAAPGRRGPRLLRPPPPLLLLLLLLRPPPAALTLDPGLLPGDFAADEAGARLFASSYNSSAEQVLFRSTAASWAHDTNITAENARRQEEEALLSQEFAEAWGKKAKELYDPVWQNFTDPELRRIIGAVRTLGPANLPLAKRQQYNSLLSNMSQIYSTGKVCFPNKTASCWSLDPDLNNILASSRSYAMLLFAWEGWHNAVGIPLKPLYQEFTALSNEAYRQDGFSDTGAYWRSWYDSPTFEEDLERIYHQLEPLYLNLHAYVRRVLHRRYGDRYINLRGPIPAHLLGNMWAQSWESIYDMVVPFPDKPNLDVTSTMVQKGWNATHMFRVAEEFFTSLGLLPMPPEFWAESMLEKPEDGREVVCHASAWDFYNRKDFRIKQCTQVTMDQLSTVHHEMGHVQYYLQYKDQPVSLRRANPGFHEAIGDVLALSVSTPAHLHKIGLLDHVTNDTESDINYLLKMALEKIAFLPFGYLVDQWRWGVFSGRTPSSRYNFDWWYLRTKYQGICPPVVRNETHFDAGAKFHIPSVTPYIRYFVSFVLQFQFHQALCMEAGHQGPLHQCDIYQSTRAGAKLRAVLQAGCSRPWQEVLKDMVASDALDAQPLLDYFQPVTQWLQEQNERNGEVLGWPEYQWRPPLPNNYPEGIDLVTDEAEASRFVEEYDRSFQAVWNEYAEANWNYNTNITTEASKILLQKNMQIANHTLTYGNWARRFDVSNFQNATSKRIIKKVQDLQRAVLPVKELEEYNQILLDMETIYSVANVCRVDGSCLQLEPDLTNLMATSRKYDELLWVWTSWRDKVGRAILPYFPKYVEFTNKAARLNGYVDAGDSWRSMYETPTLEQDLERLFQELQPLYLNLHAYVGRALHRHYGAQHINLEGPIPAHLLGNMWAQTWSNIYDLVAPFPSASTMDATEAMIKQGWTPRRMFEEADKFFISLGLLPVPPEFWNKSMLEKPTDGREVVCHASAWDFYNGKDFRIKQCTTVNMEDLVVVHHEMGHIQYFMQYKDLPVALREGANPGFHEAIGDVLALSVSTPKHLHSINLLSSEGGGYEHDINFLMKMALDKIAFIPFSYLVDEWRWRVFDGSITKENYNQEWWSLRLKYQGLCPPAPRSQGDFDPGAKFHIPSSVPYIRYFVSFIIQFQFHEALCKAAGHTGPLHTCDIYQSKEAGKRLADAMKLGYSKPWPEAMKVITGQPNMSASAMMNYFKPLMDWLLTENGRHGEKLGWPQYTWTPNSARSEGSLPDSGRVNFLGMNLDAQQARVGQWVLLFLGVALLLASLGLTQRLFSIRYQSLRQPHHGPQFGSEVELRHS
Assay: biochemical
Format: tissue-based, Lung
Details: not given

Compound	IC50
CC(=O)[C@@]1(O)CC[C@H]2[C@@H]3C[C@H](C)C4=CC(=O)C=C[C@]4(C)[C@@]3(F)[C@@H](O)C[C@@]21C [FLUOROMETHOLONE]	Not Active
C[C@]12CCC(=O)C=C1CC[C@@H]1[C@@H]2C(=O)C[C@@]2(C)[C@H]1CC[C@]2(O)C(=O)CO [CORTISONE]	Not Active
CC(=O)O[C@]1(C(C)=O)CC[C@H]2[C@@H]3C=C(Cl)C4=CC(=O)CC[C@]4(C)[C@H]3CC[C@@]21C [CHLORMADINONE ACETATE]	Not Active

Target: Glycine receptor (Rattus norvegicus, UniProt P22771+P24524+P07727+P20781); also: in other assays of this panel Not Active means under 50% inhibition at 10 µM
Assay: not given
Format: cell membranes, Wistar, Spinal cord, Membrane
Details: not given

Compound	IC50
CC(=O)[C@@]1(O)CC[C@H]2[C@@H]3C[C@H](C)C4=CC(=O)C=C[C@]4(C)[C@@]3(F)[C@@H](O)C[C@@]21C [FLUOROMETHOLONE]	Not Active
C[C@]12CCC(=O)C=C1CC[C@@H]1[C@@H]2C(=O)C[C@@]2(C)[C@H]1CC[C@]2(O)C(=O)CO [CORTISONE]	Not Active
CC(=O)O[C@]1(C(C)=O)CC[C@H]2[C@@H]3C=C(Cl)C4=CC(=O)CC[C@]4(C)[C@H]3CC[C@@]21C [CHLORMADINONE ACETATE]	Not Active

Target: T3, Substance-K receptor (Homo sapiens, UniProt P21452); also: in other assays of this panel Not Active means under 50% inhibition at 10 µM
T3 sequence (P21452 whole entry): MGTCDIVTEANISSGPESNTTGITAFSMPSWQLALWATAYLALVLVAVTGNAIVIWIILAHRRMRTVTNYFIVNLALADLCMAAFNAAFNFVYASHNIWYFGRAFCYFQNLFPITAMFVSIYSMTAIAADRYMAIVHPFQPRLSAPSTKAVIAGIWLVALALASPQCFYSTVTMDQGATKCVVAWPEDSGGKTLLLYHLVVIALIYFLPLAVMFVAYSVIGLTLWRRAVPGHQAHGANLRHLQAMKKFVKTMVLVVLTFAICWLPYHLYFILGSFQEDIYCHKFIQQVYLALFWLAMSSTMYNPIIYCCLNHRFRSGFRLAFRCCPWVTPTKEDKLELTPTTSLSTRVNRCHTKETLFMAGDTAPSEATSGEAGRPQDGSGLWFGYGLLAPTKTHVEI
Assay: not given
Format: cell membranes, CHO, Membrane
Details: cho

Compound	IC50
CC(=O)[C@@]1(O)CC[C@H]2[C@@H]3C[C@H](C)C4=CC(=O)C=C[C@]4(C)[C@@]3(F)[C@@H](O)C[C@@]21C [FLUOROMETHOLONE]	Not Active
C[C@]12CCC(=O)C=C1CC[C@@H]1[C@@H]2C(=O)C[C@@]2(C)[C@H]1CC[C@]2(O)C(=O)CO [CORTISONE]	Not Active
CC(=O)O[C@]1(C(C)=O)CC[C@H]2[C@@H]3C=C(Cl)C4=CC(=O)CC[C@]4(C)[C@H]3CC[C@@]21C [CHLORMADINONE ACETATE]	Not Active

Target: Adenosine receptor A2a (Homo sapiens, UniProt P29274)
Assay: DRUGMATRIX: Adenosine A2A radioligand binding (ligand: […])
Format: cell membranes, HEK293, Membrane
Details: hek293; Not Active = under 50% inhibition at 10 µM

Chain of Adenosine receptor A2a (P29274 whole entry): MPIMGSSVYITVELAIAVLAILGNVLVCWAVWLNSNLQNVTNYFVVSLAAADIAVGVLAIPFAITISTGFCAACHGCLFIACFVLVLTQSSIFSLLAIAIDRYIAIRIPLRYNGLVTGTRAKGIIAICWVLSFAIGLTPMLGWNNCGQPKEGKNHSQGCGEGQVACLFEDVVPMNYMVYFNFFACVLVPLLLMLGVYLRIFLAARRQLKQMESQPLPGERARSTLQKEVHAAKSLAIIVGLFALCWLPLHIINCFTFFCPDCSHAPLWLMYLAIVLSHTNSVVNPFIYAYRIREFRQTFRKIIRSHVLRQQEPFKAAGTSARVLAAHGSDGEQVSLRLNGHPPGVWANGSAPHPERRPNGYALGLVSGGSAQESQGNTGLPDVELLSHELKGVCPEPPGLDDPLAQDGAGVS

Compound	IC50
CC(=O)[C@@]1(O)CC[C@H]2[C@@H]3C[C@H](C)C4=CC(=O)C=C[C@]4(C)[C@@]3(F)[C@@H](O)C[C@@]21C [FLUOROMETHOLONE]	Not Active
C[C@]12CCC(=O)C=C1CC[C@@H]1[C@@H]2C(=O)C[C@@]2(C)[C@H]1CC[C@]2(O)C(=O)CO [CORTISONE]	Not Active
CC(=O)O[C@]1(C(C)=O)CC[C@H]2[C@@H]3C=C(Cl)C4=CC(=O)CC[C@]4(C)[C@H]3CC[C@@]21C [CHLORMADINONE ACETATE]	Not Active
